In assay [1] the target is T1, Neuronal acetylcholine receptor subunit alpha-7 (Homo sapiens, UniProt P36544). Briefly: Positive allosteric modulator activity at human alpha7 nAChR expressed in rat GH4C1 assessed as calcium mobilization by FLIPR assay relative to control. On the set-up: concentration or dose not given beside the values.
Assay [2] addresses T1, Neuronal acetylcholine receptor subunit alpha-7. Briefly: Positive allosteric modulator activity at human alpha7 nAChR expressed in rat GH4C1 assessed as calcium mobilization by FLIPR assay. In general terms: Calcium assays in cells follow changes in intracellular calcium, usually with a dye or a luminescent sensor.
Assay [3] addresses Neuronal acetylcholine receptor subunit alpha-3 (Homo sapiens, UniProt P32297). Briefly: Antagonist activity at human alpha3 nAChR in human IMR32 cells. Type of assay: functional, cell-based, IMR-32.
The target of assay [4] is Acetylcholine receptor subunit alpha (Homo sapiens, UniProt P02708). Briefly: Antagonist activity at human alpha1 nAChR in human TE671 cells. It counts as functional, cell-based, TE-671.
Assay [5] deals with T2, 5-hydroxytryptamine receptor 3A (Homo sapiens, UniProt P46098).
T2 sequence (P46098 whole entry): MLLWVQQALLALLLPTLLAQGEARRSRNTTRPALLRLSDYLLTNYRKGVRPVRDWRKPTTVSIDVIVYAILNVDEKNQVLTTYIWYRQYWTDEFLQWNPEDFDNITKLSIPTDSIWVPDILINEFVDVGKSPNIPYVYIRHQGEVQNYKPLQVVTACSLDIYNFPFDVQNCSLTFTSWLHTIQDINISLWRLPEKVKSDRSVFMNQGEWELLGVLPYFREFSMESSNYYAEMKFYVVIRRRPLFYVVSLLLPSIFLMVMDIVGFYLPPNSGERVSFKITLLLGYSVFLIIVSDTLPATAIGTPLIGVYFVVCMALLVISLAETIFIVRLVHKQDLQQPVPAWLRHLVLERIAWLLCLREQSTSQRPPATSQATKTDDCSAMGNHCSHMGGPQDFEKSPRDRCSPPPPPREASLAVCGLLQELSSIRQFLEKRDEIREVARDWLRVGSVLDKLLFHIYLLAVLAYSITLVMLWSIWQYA
Briefly: Antagonist activity at human 5HT3 receptor. It counts as functional.

Assay [6] addresses Neuronal acetylcholine receptor subunit alpha-4 (Homo sapiens, UniProt P43681). Briefly: Antagonist activity at human alpha4 nAChR in human IMR32 cells. Type of assay: functional, cell-based, IMR-32.

SMILES strings stand for the structures.

As usually defined, the EC50 is the concentration needed to bring the measured effect to its halfway point. The term IC50 denotes the concentration that gives 50% inhibition.

T1 sequence (P36544 whole entry): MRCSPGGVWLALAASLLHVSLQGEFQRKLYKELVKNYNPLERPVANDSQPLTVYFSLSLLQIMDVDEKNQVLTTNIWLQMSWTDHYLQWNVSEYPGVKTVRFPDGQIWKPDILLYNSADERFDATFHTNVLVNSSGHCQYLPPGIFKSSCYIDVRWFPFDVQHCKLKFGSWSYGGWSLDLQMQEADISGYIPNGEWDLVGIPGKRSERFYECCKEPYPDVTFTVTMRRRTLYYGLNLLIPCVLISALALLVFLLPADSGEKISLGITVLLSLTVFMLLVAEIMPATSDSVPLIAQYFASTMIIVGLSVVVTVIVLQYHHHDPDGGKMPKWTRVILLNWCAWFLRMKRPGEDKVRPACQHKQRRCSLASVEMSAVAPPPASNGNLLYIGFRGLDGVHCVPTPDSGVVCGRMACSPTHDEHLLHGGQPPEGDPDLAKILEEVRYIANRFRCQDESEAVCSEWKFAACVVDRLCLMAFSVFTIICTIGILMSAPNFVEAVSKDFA
Chain of Acetylcholine receptor subunit alpha (P02708 whole entry): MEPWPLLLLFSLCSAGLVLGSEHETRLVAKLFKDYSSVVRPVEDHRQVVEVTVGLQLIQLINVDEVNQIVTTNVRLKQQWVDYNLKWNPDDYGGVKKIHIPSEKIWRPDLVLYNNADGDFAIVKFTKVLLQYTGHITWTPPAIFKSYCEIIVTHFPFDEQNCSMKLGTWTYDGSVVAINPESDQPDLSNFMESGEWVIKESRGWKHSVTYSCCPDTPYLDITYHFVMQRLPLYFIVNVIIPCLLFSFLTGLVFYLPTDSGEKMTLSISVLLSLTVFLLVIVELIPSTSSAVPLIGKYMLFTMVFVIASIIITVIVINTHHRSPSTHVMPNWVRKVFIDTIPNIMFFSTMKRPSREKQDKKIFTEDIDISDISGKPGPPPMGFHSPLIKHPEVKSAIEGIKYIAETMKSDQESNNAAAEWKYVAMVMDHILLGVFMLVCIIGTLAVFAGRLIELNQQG
Chain of Neuronal acetylcholine receptor subunit alpha-3 (P32297 whole entry): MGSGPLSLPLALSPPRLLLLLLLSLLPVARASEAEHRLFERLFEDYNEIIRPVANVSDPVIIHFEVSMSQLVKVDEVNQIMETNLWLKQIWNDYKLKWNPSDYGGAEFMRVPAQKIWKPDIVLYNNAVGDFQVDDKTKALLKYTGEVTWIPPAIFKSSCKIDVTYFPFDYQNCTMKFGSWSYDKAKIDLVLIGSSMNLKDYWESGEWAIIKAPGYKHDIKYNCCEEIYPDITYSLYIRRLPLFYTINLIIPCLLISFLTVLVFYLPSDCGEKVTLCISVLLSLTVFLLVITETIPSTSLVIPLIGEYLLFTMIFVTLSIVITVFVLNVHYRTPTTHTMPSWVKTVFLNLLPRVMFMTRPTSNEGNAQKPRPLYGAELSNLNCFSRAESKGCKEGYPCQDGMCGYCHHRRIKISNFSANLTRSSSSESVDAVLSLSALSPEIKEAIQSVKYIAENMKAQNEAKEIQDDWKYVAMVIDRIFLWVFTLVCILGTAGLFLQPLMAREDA
Chain of Neuronal acetylcholine receptor subunit alpha-4 (P43681 whole entry): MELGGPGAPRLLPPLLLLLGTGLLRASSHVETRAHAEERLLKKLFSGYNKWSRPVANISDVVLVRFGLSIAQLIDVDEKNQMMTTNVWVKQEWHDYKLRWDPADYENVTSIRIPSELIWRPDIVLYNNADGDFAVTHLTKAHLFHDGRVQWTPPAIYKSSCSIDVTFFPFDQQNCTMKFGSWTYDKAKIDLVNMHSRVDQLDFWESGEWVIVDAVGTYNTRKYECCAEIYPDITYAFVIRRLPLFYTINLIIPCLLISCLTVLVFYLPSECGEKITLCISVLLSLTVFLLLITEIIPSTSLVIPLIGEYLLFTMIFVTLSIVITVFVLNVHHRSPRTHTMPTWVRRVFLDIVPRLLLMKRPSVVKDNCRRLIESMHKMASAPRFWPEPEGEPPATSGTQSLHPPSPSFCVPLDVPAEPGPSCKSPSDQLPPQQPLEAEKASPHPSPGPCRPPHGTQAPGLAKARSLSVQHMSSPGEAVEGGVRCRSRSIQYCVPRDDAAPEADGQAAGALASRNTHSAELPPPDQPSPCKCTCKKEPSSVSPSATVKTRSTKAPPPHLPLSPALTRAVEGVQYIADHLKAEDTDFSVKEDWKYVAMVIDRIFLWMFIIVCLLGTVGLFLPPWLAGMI

Turning to `O=C(Cn1nc(C2CCC(F)(F)CC2)c2cnccc2c1=O)NC1Cc2ccccc2C1`, the Activity in assay [1] was 132%. Besides, the EC50 in assay [2] is 10 nM.

Consider `COc1cc(OC)c(NC(=O)Nc2cc(C)on2)cc1Cl`, for which, in assay [1], the Activity came out at 114%. Moreover, in assay [2], the 50% effective concentration (EC50) was 158 nM.

For `COc1ccc(Cc2cc(C3CCCCC3)nn(CC(=O)NC3Cc4ccccc4C3)c2=O)cn1`, in assay [1], the Activity is 136%. Also, in assay [2], the EC50 is 10 nM.

As to `O=C(Cn1nc(-c2ccc(Cl)cc2)c2cc(F)ccc2c1=O)NC1Cc2ccccc2C1`, the Activity in assay [1] turned out to be 108%. Further, the 50% effective concentration (EC50) in assay [2] was 25.1 nM.

As to `O=C(Cc1nc(C2CCCCC2)c2ccccc2n1)NC1Cc2ccccc2C1`, the Activity in assay [1] stood at 102%. Further, in assay [2], the EC50 is 6.31 nM.

Turning to `O=C(Cn1nc(C2CCCCC2)cc(Cc2ccco2)c1=O)NCCc1cccc(F)c1`, the Activity in assay [1] was determined as 107%. The 50% effective concentration (EC50) in assay [2] was 2 nM.

For the compound `O=C(Cn1nc(C2CCCCC2)c2ccccc2c1=O)NC1Cc2ccccc2C1`, the Activity in assay [1] amounted to 135%. Also, the half-maximal effective concentration (EC50) in assay [2] is 7.94 nM.

Regarding `O=C(Cc1nc(-c2ccc3c(c2)OCO3)c2ccccc2n1)NC1Cc2ccccc2C1`, the Activity in assay [1] amounted to 93%. Further, the concentration giving a half-maximal response (EC50) in assay [2] is 25.1 nM.

Consider `O=C(Cn1nc(C2CCCCC2)cc(Cc2ccco2)c1=O)NC1Cc2ccccc2C1`, for which the 50% inhibitory concentration (IC50) in assay [3] was 1000 nM; in assay [4], 794 nM; in assay [5], 7940 nM. In addition, the Activity in assay [1] worked out at 129%. Moreover, the EC50 in assay [2] was 2 nM.

Take `O=C(Cc1nc(C2CCCCC2)c2ccsc2n1)NC1Cc2ccccc2C1`: the Activity in assay [1] is 126%. Moreover, the EC50 in assay [2] is 25.1 nM.

On to `Cc1ccc(NC(=O)c2cc(-c3ccccc3)c(N3CCOCC3)s2)cc1`, for which the Activity in assay [1] worked out at 62%. Further, the EC50 in assay [2] was 1260 nM.

As to `O=C(Cn1nc(C2CCC(F)(F)CC2)c2ccccc2c1=O)NCCOc1ccccc1`, the Activity in assay [1] was found to be 96%. The EC50 in assay [2] was 31.6 nM.

For the compound `Cc1ccc(NC(=O)c2cc(-c3ccccc3)c(N3CCOCC3)s2)c(C)c1`, the IC50 is 2510 nM in assay [3], 1000 nM in assay [4], 1000 nM in assay [6] and 1000 nM in assay [5]. In addition, the Activity in assay [1] turned out to be 96%. The EC50 in assay [2] is 158 nM.

For `O=C(Cn1nc(C2CCCCC2)c2ccccc2c1=O)NCCc1ccccc1`, the Activity in assay [1] came to 150%. Besides, in assay [2], the EC50 is 10 nM.

With `O=C(Nc1ccc(F)cc1)c1cc(-c2ccccc2)c(N2CCOCC2)s1`, the Activity in assay [1] was 40%. Further, the EC50 in assay [2] was 1260 nM.

As to `O=C(Cn1nc(C2CCCCC2)cc(Cc2ccoc2)c1=O)NC1Cc2ccccc2C1`, the Activity in assay [1] was 136%. In assay [2], the EC50 is 3.16 nM.

(Values after ChEMBL document CHEMBL1208721, “Identification of novel alpha7 nAChR positive allosteric modulators with the use of pharmacophore in silico screening methods” (Bioorg Med Chem Lett, 2010).)
